Test results published in EP0029617A1, “Use of tertiary heterocyclic amines as synergists in pesticides; derivatives of cycloamines” (priority 1979, dated 1981).
Read-outs that look alike come from different tables or passages of the source.

Legend:
[1] = test system: Drosophila melanogaster; experiment: whole plant or invertebrate; assay type: in vivo; conditions: for Wirksamkeit in % Substanz +Dimeti-lan: 1 ml 0,05%ige amine solution + 1 ml 0,0001%ige Dimetilan solution; for Wirksamkeit in % Substanz +Dimethoat: 1 ml 0,05%ige amine solution + 1 ml 0,005 %ige Dimethoat solution (Dimethoat : amine 1 : 10); for Faktor der Wirkungssteigerung bei Dime-methoat / Faktor der Wirkungssteigerung bei Dimi-tilan: calculated after subtracting the amine's own effect; for Faktor der Wirkungssteigerung bei Dimi-tilan: amine 0,05 % + Dimetilan 0,0001 %
Source text: Die insektiziden Wirkungen von tertiären heterocyclischen Aminen und die synergistischen Eigenschaften mit dem Phosphorsäureester Dimethoat und dem Carbamat Dimetilan, getestet an Drosophila melanogaster.
Die Versuche wurden in Petrischalen von 10 cm Durchmesser ausgeführt. Es wurden zunächst die gerade noch wirksamen Konzentrationen von Dimethoat und Dimetilan bestimmt. Für Dimethoat wurde 0,005 % und für Dimetilan 0,0001 % als günstige Versuchskonzentration ermittelt. Die Aminkomponente wurde mit 1 ml 0,05%iger Lösung + 1 ml Aceton auf insektizide Wirkung getestet. Zur Bestimmung des Synergismus wurde 1 ml 0,05%ige Aminlösung + 1 ml 0,005.%ige Dimethoatlösung, bzw. + 1 ml 0,0001%ige Dimetilanlösung pro Petrischale eingesetzt. Alle Verdünnungen wurden mit Aceton als Lösungsmittel hergestellt.
In den Petrischalen wurden die Lösungen am Boden gut verteilt und 30 min lang antrocknen lassen. In jede Petrischale wurden 20 mit Kohlendioxid betäubte Drosophila eingezählt. Alle 5 min, insgesamt 12 mal, wurde die Anzahl der toten Drosophila ausgezählt und notiert. Die Zahlen wurden aufsummiert und im Verhältnis zur möglichen Zahl an toten Drosophila in % angegeben, wobei der Tot aller Drosophila innerhalb der ersten 5 min 100 % Wirkung entspricht. Jeder Versuch wurde mit 3 Wiederholungen durchgeführt. In Tabelle 1 sind die Mittelwerte der Ergebnisse zusammengestellt.
Zur Ermittlung des synergistischen Faktors wurden die Einzelwerte pro Zeiteinheit durch die für Dimethoat, bzw. Dimetilan für die jeweilige Zeiteinheit gefundenen Werte dividiert. Die Werte für jede Zeiteinheit wurden summiert und durch die Anzahl der Zeiteinheiten dividiert. Die Versuche wurden bei sonst stets gleichbleibenden Bedingungen bei Temperaturen von 20 - 22°C ausgeführt. Die Kontrollversuche zeigten bei Versuchsabschluß stets 0 % Mortalität. Hat die Substanz selbst eine insektizide Wirkung, so wurden die Wirkungsfaktoren für Dimethoat und Dimetilan nach Abzug des Substanzwertes berechnet und in der Tabelle aufgeführt.
Im Beispiel 1 war das Verhältnis von Insektizid und erfindungsgemäßem Amin 1 : 10 in den Gemischen mit Dimethoat. In der Tabelle 2 sind Verhältnisse von 1 : 1, 1 : 2 und 1 : 0,2 bei Versuchen mit Dimethoat aufgeführt, dabei wurde das Dimethoat immer in einer Konzentation von 0,005 % eingesetzt. Die Tabelle zeigt, daß auch bei diesen Verhältnissen noch eine gute synergistische Wirkung vorhanden ist, und es keineswegs einer großen überdosierung des Amins bedarf.

[2] = test system: Kornkäfer (sitophilus granarius L); experiment: whole plant or invertebrate; assay type: in vivo; conditions: for mortality at 1000 µg/mL / Wirksamkeit in % Substanz allein: amine 1 mg/ml in Aceton mixed 1 : 1 with Aceton, 2 ml per dish, 25 weevils, dead counted after 3 h; for mortality at 1000 µg/mL: read-out: Wirksamkeit in % Substanz allein; for Wirksamkeit in % Substanz +Ripcord: amine 1 mg/ml mixed 1 : 1 with Ripcord 0,01 mg/ml; for Wirksamkeit in % Substanz +Talcord: amine 1 mg/ml mixed 1 : 1 with Talcord 0,01 mg/ml; for % Wirkung Substanz +Ripcord / % Wirkung Substanz +Talcord: 180 min; for mortality at 100 µg/mL: amine 0,1 mg/ml (as for Pyrethroid : Amin 1 : 10)
Procedure, shortened: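 Acetone solutions (2 ml) were dried as films in 15 cm Petri dishes and 25 grain weevils added per dish, with a filter inserted after 1 h. Dead beetles were counted at 3 h at 19–21 °C, and % mortality and the synergistic factor were derived.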

[3] = Drosophila melanogaster, 1 ml 0,05%ige amine solution + 1 ml Aceton per dish, 20 flies, dead counted every 5 min, 12 times, mean values, read-out: Wirksamkeit in % Substanz allein
[4] = amine 0,05 % + Dimethoat 0,005 %
[5] = amine 1 mg/ml + Ripcord 0,01 mg/ml
[6] = 1 ml 0,05%ige amine solution + 1 ml Aceton per dish, 20 flies, dead counted every 5 min, 12 times, mean values
[7] = amine 1 mg/ml + Talcord 0,01 mg/ml
[8] = Drosophila melanogaster, amine 0,005 %, read-out: Sub-stanz allein
[9] = amine 0,005 % + Dimethoat 0,005 %, Dimethoat : Amin 1 : 1
[10] = amine 0,005 %, Dimethoat : Amin 1 : 1
[11] = Pyrethroid : Amin 1 : 10, amine 0,1 mg/ml
[12] = Sitophilus granarius, 3 h, read-out: % Wirkung Substanz allein
[13] = Drosophila melanogaster, amine 0,05 %, read-out: Sub-stanz allein
[14] = amine 0,05 % + Dimethoat 0,005 %, Dimethoat : Amin 1 : 10
[15] = amine 0,05 %, Dimethoat : Amin 1 : 10
[16] = Pyrethroid : Amin 1 : 5, amine 0,05 mg/ml

Compound	Wirksamkeit in % Substanz +Dimeti-lan [1]	Wirksamkeit in % Substanz +Dimethoat [1]	mortality at 0.05 % [1, 3]	Faktor der Wirkungssteigerung bei Dime-methoat [1, 4]	Faktor der Wirkungssteigerung bei Dimi-tilan [1]	mortality at 1000 µg/mL ([2]; Sitophilus granarius)	Synergistischer Faktor bei Ripcord [2, 5]	Wirksamkeit in % Substanz +Ripcord ([2]; 3 h)	Wirksamkeit in % Substanz +Talcord ([2]; 3 h)	Synergistischer Faktor bei Talcord [2, 7]	other results
CCCCCCCCCCN1CCCCCC1 [N-Decyl-hexamethylenimin]	68,8%	65,0%	49.2%	1,84	7,84	69.2%	1,35	93,2%	62,8%		
c1ccc(OCCCN2CCCCC2)cc1 [N-(1-Phenoxi-propyl-(3))-piperidin]	12,1%	8,8%			4,8		2,96	93,2%	29,2%	3,01	Wirksamkeit in % Substanz allein [1, 6]: 0%; Wirksamkeit in % Substanz allein [2]: 0%
C(=Cc1ccccc1)CN1CCCCC1 [N-Cinnamyl-piperidin]	82,5%	77,1%	66.3%	1,25	6,48	0%	3,08	97,2%	68,0%	7,01	
CCCCCC(CCCCC)N1CCCC1 [6-N-Pyrrolidino-undecan]	75,8%	54,2%		1,70	14,48		1,90	60,0%	58,8%	6,06	Wirksamkeit in % Substanz allein [1, 6]: 39,6%; Wirksamkeit in % Substanz allein [2]: 0%
CCCCCCCCCCN1CCCCC1 [N-1-Decyl-piperidin]											mortality at 0.005 % [1, 8]: 0%; Substanz + Dime-thoat [1, 9]: 45,4%; Faktor der Wirkungs-steigerung [1, 10]: 5,28; Synergistischer Faktor bei Ripcord ([2]; Pyrethroid : Amin 1 : 10): 3,09; Synergistischer Faktor bei Talcord ([2]; Pyrethroid : Amin 1 : 10): 6,72; % Wirkung Substanz +Ripcord [2, 11]: 97,2%; % Wirkung Substanz +Talcord [2, 11]: 65,2%; mortality at 100 µg/mL [2, 12]: 0%
CCCCCCCCCCCCCN1CCCCC1 [N-1-Tridecyl-piperidin]	2,3%	54,6%	0%	6,35		0%	3,05	96,0%	17,2%	1,77	mortality at 0.01 % ([1]; Drosophila melanogaster, amine 0,01 %, read-out: Sub-stanz allein): 0%; mortality at 0.05 % [1, 13]: 0%; Substanz + Dime-thoat ([1]; amine 0,01 % + Dimethoat 0,005 %, Dimethoat : Amin 1 : 2): 42,9%; Faktor der Wirkungs-steigerung ([1]; amine 0,01 %, Dimethoat : Amin 1 : 2): 4,99; Substanz + Dime-thoat [1, 14]: 54,6%; Faktor der Wirkungs-steigerung [1, 15]: 6,35
CCCCOCCOCCOCCN1CCCC1 [N-(a-Butyl-triethylen-tri-ether-(w))-pyrrolidin]	1,7%	23,3%		2,97			3,05	96,0%	13,2%	1,24	Wirksamkeit in % Substanz allein [1, 6]: 0%; Wirksamkeit in % Substanz allein [2]: 0%
c1cc2c(cc1CN1CCCCC1)OCO2 [N-Piperonyl-piperidin]	52,1%	65,0%	51.7%	1,55		0%		90,8%	64,0%		mortality at 0.05 % [1, 13]: 28.8%; mortality at 0.005 % [1, 8]: 0%; Substanz + Dime-thoat [1, 14]: 60,0%; Faktor der Wirkungs-steigerung [1, 15]: 3,63; Substanz + Dime-thoat [1, 9]: 26,3%; Faktor der Wirkungs-steigerung [1, 10]: 3,06; % Wirkung Substanz +Ripcord [2, 16]: 84,0%; % Wirkung Substanz +Talcord [2, 16]: 54,8%; % Wirkung Substanz +Ripcord [2, 11]: 74,8%; % Wirkung Substanz +Talcord [2, 11]: 24,0%; mortality at 100 µg/mL [2, 12]: 0%; mortality at 50 µg/mL ([2]; Sitophilus granarius, 3 h, amine 0,05 mg/ml (as for Pyrethroid : Amin 1 : 5), read-out: % Wirkung Substanz allein): 0%
c1cc2c(cc1CN1CCCC1)OCO2 [N-Piperonyl-pyrrolidin]	58,3%	60,0%	28.8%	3,63	11,80	41.2%	1,87	100,0%	82,8%	4,29	
C(=Cc1ccccc1)CN1CCCC1 [1-Cinnamyl-pyrrolidin]	55,4%	5,8%	0%		22,2	0%	3,08	97,2%	30,8%	3,17	
CCCCCCCCCCCCCCN1CCOCC1 [N-1-Tetradecyl-morpholin]	2,5%	57,1%	0%	6,64		0%	2,03	64,0%	5,2%		
